According to patent US9937151B2, “Carbapenem antibacterials with gram-negative activity” (priority 2010, dated 2018):
≈ marks a conversion by molar mass, not a printed value.

Tested on: G(−) bacterial strains
Experiment: Dilution antimicrobial susceptibility tests (MIC, NCCLS agar dilution / broth dilution)
Type: cell-based, Gram-negative organisms
Conditions: unit assumed
Description: The MIC (minimum inhibitory concentration) was determined by the NCCLS (National Committee for Clinical Laboratory Standards) methods 2000. Methods for dilution antimicrobial susceptibility testing for bacteria that growth aerobically (M7-A5, vol. 20, No. 2). The agar dilution method for determining antimicrobial susceptibility was carried out using Mueller-Hinton agar. A final inoculum of 10^4 CFU/spot was applied with an inoculation device. Broth dilution tests were performed with 5×10^5 CFU/well in 96 well plates. The susceptibilities of streptococci were determined by Mueller-Hinton agar supplemented with 5% sheep blood. All assays were run with the indicated control strains, available from the ATCC (American Type Culture Collection, Rockville, Md.).
Abbreviations used in Table 1 are defined as follows: Cf-R: Ceftazidime Resistance, Ci-R: Ciprofloxacin Resistance, Gen-R: Gentamycin Resistance, Imp-R: Imipenem Resistance, Mp-R: Meropenem Resistance, Ofx-R: Ofloxacin Resistance, B+: β-lactamase Production, AmpC: AmpC-lactamase Hyper production, CBPase: Carbapenemase Production.

[1] = strain #1 Acinetobacter calcoaceticus
[2] = strain #2 Acinetobacter baumannii, Cf-R, Ci-R
[3] = strain #3 Acinetobacter baumannii, Cf-R, Ci-R, Mp-I
[4] = strain #4 Acinetobacter baumannii, Cf-R, Imp-I, CBPase
[5] = strain #7 Enterobacter aerogenes
[6] = strain #8 Enterobacter cloacae, Cf-R, B+
[7] = strain #9 Enterobacter cloacae, Cf-R
[8] = strain #10 Escherichia coli, Ci-R
[9] = strain #11 Escherichia coli, Ci-R, AmpC
[10] = strain #15 Klebsiella pneumoniae
[11] = strain #16 Moraxella catarrhalis
[12] = strain #21 Providencia rettgeri
[13] = strain #22 Salmonella typhimurium
[14] = strain #25 Shigella dysenteriae
[15] = strain #28 Stenotrophomonas maltophilia
[16] = strain #29 Pseudomonas aeruginosa
[17] = strain #30 Pseudomonas aeruginosa
[18] = strain #31 Pseudomonas aeruginosa, Ofx-R
[19] = strain #32 Pseudomonas aeruginosa, Cf-R
[20] = strain #33 Pseudomonas aeruginosa, Ci-R
[21] = strain #34 Pseudomonas aeruginosa, Gen-R
[22] = strain #35 Pseudomonas aeruginosa, Ip-R
[23] = strain #36 Pseudomonas aeruginosa, Cf-R, Ci-R, Mp-R

| SMILES | MIC [1] | MIC [2] | MIC [3] | MIC [4] | MIC (strain #5 Citrobacter diversus) | MIC (strain #6 Citrobacter freundii) | MIC [5] | MIC [6] | MIC [7] | MIC [8] | MIC [9] | MIC (strain #12 Escherichia coli) | MIC (strain #13 Escherichia coli) | MIC (strain #14 Klebsiella oxytoca) | MIC [10] | MIC [11] | MIC (strain #17 Morganella Morganii) | MIC (strain #18 Morganella Morganii) | MIC (strain #19 Proteus vulgaris) | MIC (strain #20 Proteus mirabilis) | further results |
| --- | --- | --- | --- | --- | --- | --- | --- | --- | --- | --- | --- | --- | --- | --- | --- | --- | --- | --- | --- | --- | --- |
| C[C@@H](O)C1C(=O)N2C(C(=O)O)=C(CN3CC[C@H](N)C3)[C@H](C)C12 (stereo partly shown) [Compound 27] | 0.25 µg/mL (≈ 0.808 µM) | 0.5 µg/mL (≈ 1.62 µM) | 2 µg/mL (≈ 6.46 µM) | 1 µg/mL (≈ 3.23 µM) | 0.25 µg/mL (≈ 0.808 µM) | 0.25 µg/mL (≈ 0.808 µM) | 1 µg/mL (≈ 3.23 µM) | 0.25 µg/mL (≈ 0.808 µM) | 0.5 µg/mL (≈ 1.62 µM) | 0.25 µg/mL (≈ 0.808 µM) | 0.25 µg/mL (≈ 0.808 µM) | 0.25 µg/mL (≈ 0.808 µM) | 0.25 µg/mL (≈ 0.808 µM) | 0.5 µg/mL (≈ 1.62 µM) | 0.5 µg/mL (≈ 1.62 µM) | ≤ 0.008 µg/mL | 4 µg/mL (≈ 12.9 µM) | 2 µg/mL (≈ 6.46 µM) | 1 µg/mL (≈ 3.23 µM) | 0.25 µg/mL (≈ 0.808 µM) | MIC [12]: 1 µg/mL (≈ 3.23 µM); MIC [13]: 0.25 µg/mL (≈ 0.808 µM); MIC (strain #23 Serratia marcescens): 0.5 µg/mL (≈ 1.62 µM); MIC (strain #24 Serratia marcescens): 1 µg/mL (≈ 3.23 µM); MIC [14]: 0.5 µg/mL (≈ 1.62 µM); MIC (strain #26 Shigella sonnei): 0.25 µg/mL (≈ 0.808 µM); MIC (strain #27 Shigella flexneri): 0.13 µg/mL (≈ 0.42 µM); MIC [15]: 0.13 µg/mL (≈ 0.42 µM); MIC [16]: 2 µg/mL (≈ 6.46 µM); MIC [17]: 2 µg/mL (≈ 6.46 µM); MIC [18]: 0.5 µg/mL (≈ 1.62 µM); MIC [19]: 2 µg/mL (≈ 6.46 µM); MIC [20]: 2 µg/mL (≈ 6.46 µM); MIC [21]: 2 µg/mL (≈ 6.46 µM); MIC [22]: 4 µg/mL (≈ 12.9 µM); MIC [23]: 8 µg/mL (≈ 25.9 µM) |
| C[C@@H](O)C1C(=O)N2C(C(=O)O)=C(CN3CC[C@@H](NC(=N)N)C3)[C@H](C)C12 (stereo partly shown) [Compound 156] | 0.5 µg/mL (≈ 1.42 µM) | 2 µg/mL (≈ 5.69 µM) | 4 µg/mL (≈ 11.4 µM) | 2 µg/mL (≈ 5.69 µM) | 0.5 µg/mL (≈ 1.42 µM) | 0.5 µg/mL (≈ 1.42 µM) | 2 µg/mL (≈ 5.69 µM) | 0.5 µg/mL (≈ 1.42 µM) | 1 µg/mL (≈ 2.85 µM) | 0.5 µg/mL (≈ 1.42 µM) | 0.5 µg/mL (≈ 1.42 µM) | 0.5 µg/mL (≈ 1.42 µM) | 0.5 µg/mL (≈ 1.42 µM) | 1 µg/mL (≈ 2.85 µM) | 1 µg/mL (≈ 2.85 µM) | ≤ 0.008 µg/mL | 4 µg/mL (≈ 11.4 µM) | 4 µg/mL (≈ 11.4 µM) | 2 µg/mL (≈ 5.69 µM) | 0.5 µg/mL (≈ 1.42 µM) | MIC [12]: 2 µg/mL (≈ 5.69 µM); MIC [13]: 1 µg/mL (≈ 2.85 µM); MIC (strain #23 Serratia marcescens): 2 µg/mL (≈ 5.69 µM); MIC (strain #24 Serratia marcescens): 2 µg/mL (≈ 5.69 µM); MIC [14]: 1 µg/mL (≈ 2.85 µM); MIC (strain #26 Shigella sonnei): 0.5 µg/mL (≈ 1.42 µM); MIC (strain #27 Shigella flexneri): 0.5 µg/mL (≈ 1.42 µM); MIC [15]: 0.5 µg/mL (≈ 1.42 µM) |
| C[C@@H](O)C1C(=O)N2C(C(=O)O)=C(CN3CC[C@H](NC=N)C3)[C@H](C)C12 (stereo partly shown) [Compound 84] | 0.25 µg/mL (≈ 0.743 µM) | 0.5 µg/mL (≈ 1.49 µM) | 1 µg/mL (≈ 2.97 µM) | 1 µg/mL (≈ 2.97 µM) | 0.25 µg/mL (≈ 0.743 µM) | 0.5 µg/mL (≈ 1.49 µM) | 1 µg/mL (≈ 2.97 µM) | 0.25 µg/mL (≈ 0.743 µM) | 0.5 µg/mL (≈ 1.49 µM) | 0.25 µg/mL (≈ 0.743 µM) | 0.25 µg/mL (≈ 0.743 µM) | 0.25 µg/mL (≈ 0.743 µM) | 0.5 µg/mL (≈ 1.49 µM) | 0.5 µg/mL (≈ 1.49 µM) | 0.5 µg/mL (≈ 1.49 µM) | ≤ 0.008 µg/mL | 4 µg/mL (≈ 11.9 µM) | 2 µg/mL (≈ 5.95 µM) | 1 µg/mL (≈ 2.97 µM) | 0.5 µg/mL (≈ 1.49 µM) | MIC [12]: 2 µg/mL (≈ 5.95 µM); MIC [13]: 0.5 µg/mL (≈ 1.49 µM); MIC (strain #23 Serratia marcescens): 1 µg/mL (≈ 2.97 µM); MIC (strain #24 Serratia marcescens): 1 µg/mL (≈ 2.97 µM); MIC [14]: 0.5 µg/mL (≈ 1.49 µM); MIC (strain #26 Shigella sonnei): 0.5 µg/mL (≈ 1.49 µM); MIC (strain #27 Shigella flexneri): 0.25 µg/mL (≈ 0.743 µM); MIC [15]: 0.25 µg/mL (≈ 0.743 µM); MIC [16]: 2 µg/mL (≈ 5.95 µM); MIC [17]: 2 µg/mL (≈ 5.95 µM); MIC [18]: 0.5 µg/mL (≈ 1.49 µM); MIC [19]: 2 µg/mL (≈ 5.95 µM); MIC [20]: 2 µg/mL (≈ 5.95 µM); MIC [21]: 2 µg/mL (≈ 5.95 µM); MIC [22]: 4 µg/mL (≈ 11.9 µM); MIC [23]: 16 µg/mL (≈ 47.6 µM) |
| C[C@@H](O)C1C(=O)N2C(C(=O)O)=C(CN3CC(NC(=N)N)C3)[C@H](C)C12 (stereo partly shown) [Compound 89] | 0.13 µg/mL (≈ 0.385 µM) | 1 µg/mL (≈ 2.96 µM) | 1 µg/mL (≈ 2.96 µM) | 0.5 µg/mL (≈ 1.48 µM) | 0.13 µg/mL (≈ 0.385 µM) | 0.25 µg/mL (≈ 0.741 µM) | 1 µg/mL (≈ 2.96 µM) | 0.13 µg/mL (≈ 0.385 µM) | 0.25 µg/mL (≈ 0.741 µM) | 0.13 µg/mL (≈ 0.385 µM) | 0.13 µg/mL (≈ 0.385 µM) | 0.13 µg/mL (≈ 0.385 µM) | 0.25 µg/mL (≈ 0.741 µM) | 0.5 µg/mL (≈ 1.48 µM) | 0.25 µg/mL (≈ 0.741 µM) | ≤ 0.008 µg/mL | 2 µg/mL (≈ 5.93 µM) | 2 µg/mL (≈ 5.93 µM) | 0.5 µg/mL (≈ 1.48 µM) | 0.25 µg/mL (≈ 0.741 µM) | MIC [12]: 1 µg/mL (≈ 2.96 µM); MIC [13]: 0.25 µg/mL (≈ 0.741 µM); MIC (strain #23 Serratia marcescens): 0.5 µg/mL (≈ 1.48 µM); MIC (strain #24 Serratia marcescens): 0.5 µg/mL (≈ 1.48 µM); MIC [14]: 0.25 µg/mL (≈ 0.741 µM); MIC (strain #26 Shigella sonnei): 0.25 µg/mL (≈ 0.741 µM); MIC (strain #27 Shigella flexneri): 0.13 µg/mL (≈ 0.385 µM); MIC [15]: 0.13 µg/mL (≈ 0.385 µM); MIC [16]: 1 µg/mL (≈ 2.96 µM); MIC [17]: 1 µg/mL (≈ 2.96 µM); MIC [18]: 0.5 µg/mL (≈ 1.48 µM); MIC [19]: 1 µg/mL (≈ 2.96 µM); MIC [20]: 1 µg/mL (≈ 2.96 µM); MIC [21]: 1 µg/mL (≈ 2.96 µM); MIC [22]: 4 µg/mL (≈ 11.9 µM); MIC [23]: 8 µg/mL (≈ 23.7 µM) |
| C[C@@H](O)C1C(=O)N2C(C(=O)O)=C(CN3CC[C@H](C(N)=O)C3)[C@H](C)C12 (stereo partly shown) [Compound 12] | 0.5 µg/mL (≈ 1.48 µM) | 0.5 µg/mL (≈ 1.48 µM) | 2 µg/mL (≈ 5.93 µM) | 1 µg/mL (≈ 2.96 µM) | 0.13 µg/mL (≈ 0.385 µM) | 0.25 µg/mL (≈ 0.741 µM) | 1 µg/mL (≈ 2.96 µM) | 0.13 µg/mL (≈ 0.385 µM) | 0.25 µg/mL (≈ 0.741 µM) | 0.13 µg/mL (≈ 0.385 µM) | 0.13 µg/mL (≈ 0.385 µM) | 0.13 µg/mL (≈ 0.385 µM) | 0.25 µg/mL (≈ 0.741 µM) | 0.5 µg/mL (≈ 1.48 µM) | 0.5 µg/mL (≈ 1.48 µM) | ≤ 0.008 µg/mL | 2 µg/mL (≈ 5.93 µM) | 1 µg/mL (≈ 2.96 µM) | 0.5 µg/mL (≈ 1.48 µM) | 0.25 µg/mL (≈ 0.741 µM) | MIC [12]: 1 µg/mL (≈ 2.96 µM); MIC [13]: 0.25 µg/mL (≈ 0.741 µM); MIC (strain #23 Serratia marcescens): 0.5 µg/mL (≈ 1.48 µM); MIC (strain #24 Serratia marcescens): 1 µg/mL (≈ 2.96 µM); MIC [14]: 0.25 µg/mL (≈ 0.741 µM); MIC (strain #26 Shigella sonnei): 0.25 µg/mL (≈ 0.741 µM); MIC (strain #27 Shigella flexneri): 0.25 µg/mL (≈ 0.741 µM); MIC [15]: 0.25 µg/mL (≈ 0.741 µM); MIC [16]: 4 µg/mL (≈ 11.9 µM); MIC [17]: 4 µg/mL (≈ 11.9 µM); MIC [18]: 1 µg/mL (≈ 2.96 µM); MIC [19]: 4 µg/mL (≈ 11.9 µM); MIC [20]: 4 µg/mL (≈ 11.9 µM); MIC [21]: 4 µg/mL (≈ 11.9 µM); MIC [22]: 8 µg/mL (≈ 23.7 µM); MIC [23]: 32 µg/mL (≈ 94.8 µM) |
